The text below walks through data of PubChem BioAssay AID449764 (Southern Research Specialized Biocontainment Screening …, 2010).

For this test, the system named is Mycobacterium tuberculosis H37Rv growth inhibition, no glycerol. As to the kind of experiment: Confirmatory growth inhibition assay, Mycobacterium tuberculosis H37Rv, absence of glycerol (AID 449764).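 On all read-outs here: growth read after 7 days of incubation.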 The following applies: for IC90: measured here: IC90 growth inhibition.

The structures appear in SMILES notation. Bounds are passed on as bounds.

For the compound `O=C(Nc1ccc([N+](=O)[O-])cc1)Nc1ccc(OC(F)F)c(Cl)c1`, the IC50 (usually the concentration at which inhibition is half-maximal) was 2.5 µM and the IC90 – broadly, the concentration at which the effect reaches the 90% level – turned out to be 3.63 µM.

`O=C(Nc1ccc(Cl)cc1)N1CCN(c2ccc3nnc(-c4ccc(F)cc4)n3n2)CC1`: the IC50 was 18.9 µM and the concentration for an effect of 90% (IC90) was 51.8 µM.

As to `CC(C)=N/N=C1/NC(=O)C(Cc2ccccc2)S1` (centres undefined), the IC50 was 76.5 µM and the IC90 stood at 97.2 µM. Consider `C#CCOC(=O)/C(=C/C=C/c1ccccc1)NC(=O)c1ccccc1`, for which the IC50 was 27.1 µM and the IC90 came to 56.6 µM. For `CCc1cc(C(=O)Nc2nc(-c3ccccn3)cs2)sc1C` the same measures were 4.53 µM and 8.86 µM. For the compound `CC(C)(O)C#Cc1ccc(C(=O)Nc2ccc3c(c2)OCO3)s1`, the IC50 was 42.9 µM and the IC90 is greater than 100 µM.

For `C=CCn1cccc(/C=C/C(=O)c2ccc(C(C)(C)C)cc2)c1=S`, the IC50 was 68 µM and the IC90 worked out at 86.8 µM. Taken in the same sequence, the figures for `CN(Cc1ccc(Cl)s1)C(=O)CCl` were 1.54 µM and 1.73 µM. For the compound `CCN(CC)S(=O)(=O)c1ccc2oc(SCC(=O)Nc3cc(C)on3)nc2c1`, the IC50 was 10.8 µM and the IC90 was determined as 16.6 µM. In the case of `Cc1cc(-c2nnc3n2CCCCC3)c(C)n1-c1ccccc1`, the IC50 was 45.3 µM and the IC90 turned out to be 73.8 µM. Turning to `CCCOC(=O)/C(=C\c1ccc([N+](=O)[O-])o1)NC(=O)c1ccccc1`, the IC50 was 24.2 µM and the IC90 is greater than 100 µM. As for `CCN(Cc1ccncc1)Cc1nc(-c2ccc(C(=O)OC)cc2)no1`, the IC50 is 34.2 µM and the IC90 was found to be 53.6 µM. `O=C(C1CCCN(c2ncnc3c2nc2n3CCCCC2)C1)N1CCN(c2ccc(Cl)cc2)CC1` (centres undefined): the IC50 is 38.1 µM and the IC90 stood at 51 µM. In the case of `Cn1/c(=N/NC(=O)c2cccc(OC(F)F)c2)sc2ccccc21`, the IC50 was 9.17 µM and the IC90 was 24.1 µM.

As for `O=C(CCC(=O)NC1CCCCCCC1)Nc1nnc(C(F)(F)F)s1`, the IC50 was 12.1 µM and the IC90 stood at 13.8 µM. Regarding `CC(C)Cn1c(N2CCN(C(=O)/C=C/c3ccccc3)CC2)nc2ccccc21`, the IC50 was 34 µM and the IC90 worked out at 47.4 µM. In the case of `FC(F)(F)c1cc(CO[C@@H]2CCCN[C@@H]2c2ccccc2)cc(C(F)(F)F)c1`, the IC50 was 27.4 µM and the IC90 was 38.2 µM. With `C=C(C)C1CC=C(CN2CCN(Cc3ccccc3)CC2)CC1` (centres undefined), the IC50 was 17.8 µM and the IC90 came to 22 µM.

As to `COC(=O)COc1ccc(-c2nn(C)c(=O)c3ccccc23)cc1`, the IC50 was 13.1 µM and the IC90 came to 58.5 µM.

In the case of `CC1CCCCC1NC(=O)c1ccc2c(c1)[nH]c(=O)n2C1CCCC1` (centres undefined), the IC50 is 9.65 µM and the IC90 stood at 14.1 µM. Taken in the same sequence, the figures for `CCOC(=O)N1CCC(n2c(SCC(=O)OCc3ccccc3)nc3ccsc3c2=O)CC1` were 61.6 µM and greater than 100 µM. Taken in the same sequence, the figures for `COc1cccc2sc3ccc(C#CC4(N)CCCCC4)cc3c(=O)c12` were 73.8 µM and greater than 100 µM. In the case of `CCc1ccc(-c2csc(-c3c[nH]c4ccccc34)n2)cc1`, the IC50 was 17.1 µM and the IC90 turned out to be 21.3 µM.

`CC(C)(C)c1ccc(Cn2nnc3c(=O)[nH]c(C4CCCN(C(=O)Cc5cccs5)C4)nc32)cc1` (centres undefined): the IC50 was 36 µM and the IC90 worked out at 46.6 µM. On to `CCNCC(=O)N1c2ccccc2CCc2ccc(NC(=O)OC(C)C)cc21`, for which the IC50 was 53.7 µM and the IC90 was 77 µM.

On to `O=C(C1=C[C@@H](c2csc3ccccc23)C[C@@H](OCCCCO)O1)N1CCN(Cc2ccc3c(c2)OCO3)CC1`, for which the IC50 was 33.9 µM and the IC90 stood at 53.6 µM.

As to `Nc1ccc(-c2nc3nc(N)nc(N)c3nc2-c2ccc(N)cc2)cc1`, the IC50 is 48.8 µM and the IC90 is greater than 100 µM. Taken in the same sequence, the figures for `COC(=O)CN1C(c2ccc(Cl)cc2)=Nc2ccc(Cl)cc2C1c1ccccc1` (centres undefined) were 23 µM and 24.8 µM. On to `CC(=O)c1ccc(-n2cc(-c3ccc(C(C)(C)C)cc3)[n+]3c2SCCC3)cc1`, for which the IC50 is 20.3 µM and the IC90 is 26.9 µM. `CC(C)(C)OC(=O)NNc1c2ccccc2nc2ccccc12`: the IC50 was 22.6 µM and the IC90 worked out at 25.2 µM.

As to `CCOC(=O)COc1cc([N+](=O)[O-])cc2cccnc12`, the IC50 was 30.5 µM and the IC90 came to 46.4 µM. For `CNc1ccc2nc3ccccc3[n+](C)c2c1`, the IC50 is 1.16 µM and the IC90 amounted to 1.68 µM. For `CN(C)CCOc1nc(-c2ccccc2)nc2c1oc1ccccc12` the same measures were 19.1 µM and 25.6 µM. Compound `O=C1c2ccccc2CC1Sc1nnc(-c2ccncc2)o1` (centres undefined) returned an IC90 greater than 100 µM.

With `S=c1nc[nH]c2nc[nH]c12`, the IC50 is 3.32 µM and the IC90 was found to be 5.19 µM. For `O=C(NC1CCN(Cc2ccccc2)CC1)c1cccc(S(=O)(=O)Nc2ccc(SC(F)F)cc2)c1` the same measures were 19.3 µM and 27.9 µM.

Turning to `Cc1ccc(N2C(=O)C(F)(F)C2c2ccccc2)cc1` (centres undefined), the IC50 is 4.61 µM and the IC90 was 7.9 µM.

For the compound `CCOC(=O)c1ccc(NC2=CC(=O)C(=O)c3ccccc32)cc1`, the IC50 is 37.7 µM and the IC90 is 48.3 µM. In the case of `Cc1ccc(C2(c3ccc(C)cc3)CC2C(=O)Nc2ccc([N+](=O)[O-])cc2O)cc1` (centres undefined), the IC50 was 18.8 µM and the IC90 was found to be 23.6 µM.

`CCN(CC)CCCNc1nc2cc(OC)c(OC)cc2c2nc(-c3ccccc3)nn12`: the IC50 was 11.1 µM and the IC90 was found to be 12.8 µM. `NC1=NC[C@H](CC2CCCCC2)N1CCc1cc(C(F)(F)F)cc(C(F)(F)F)c1`: the IC50 was 11.2 µM and the 90% effect concentration (IC90) came out at 12.8 µM. Regarding `Cc1ccc(NC(=O)Cn2ccsc2=N)c([N+](=O)[O-])c1`, the IC50 is 18.5 µM and the IC90 was 34.7 µM. Taken in the same sequence, the figures for `Cc1ccc(C(=O)n2c(N)nc3ccccc32)cc1` were 89.9 µM and greater than 100 µM.

Turning to `COc1ccc(-c2ccc(OC)c([C@H]3[C@@H]4C=CCC[C@@]4(C)C(=O)N3Cc3ccccc3)c2)cc1OC`, the IC50 was 89.5 µM and the IC90 was greater than 100 µM. Consider `Cc1ccc(/C=C2\SC(N3CCCC3)=NC2=O)cc1`, for which the IC50 was 0.74 µM and the IC90 was 4.62 µM. In the case of `CC(=O)OCC1O[C@@H](O[C@@H]2C[C@H]3C(C)(C)[C@H](OC(C)=O)CC[C@]3(C)[C@H]3CC[C@]45C[C@]4(CC[C@H]5[C@@H](C)C[C@@H](O)[C@H](O)C(C)(C)O)[C@@]32C)[C@H](O)[C@@H](O)[C@@H]1O` (some centres undefined), the IC50 is 25.9 µM and the IC90 turned out to be 35.7 µM. Take `CC(C)(C)C(=O)N1CCN(c2ccc(NC(=O)c3ccc([N+](=O)[O-])o3)cc2)CC1`: the IC50 is less than 0.2 µM and the IC90 amounted to 1.93 µM.

With `Cc1cc(OCc2cc(C(=O)N(C)CCc3cnn(C)c3)no2)cc(C)c1Cl`, the IC50 is 34.5 µM and the IC90 was determined as 56.2 µM. On to `O=C(c1ccc(CNc2c(N3CCCC3)c(=O)c2=O)cc1)N1CC=C(c2ccccc2)CC1`, for which the IC50 was 1.43 µM and the IC90 was 1.62 µM. Consider `CNC(CC(=O)c1ccc([N+](=O)[O-])cc1)C(Cl)(Cl)Cl` (centres undefined), for which the IC50 is 5.37 µM and the IC90 is 7.81 µM.
